Source: PMC10447463, “Data-mining unveils structure–property–activity correlation of viral infectivity enhancing self-assembling peptides” (Nature Communications, 2023)
Like-named read-outs stand apart in the source and are kept apart here.

Legend:
[1] = type: physicochemical; set-up: key to Fibril / Fibril Formation / TEM 2cat / Fibril: 1 = fibrils present; 0 non-fibrillar structures; details: for Fibril / Fibril Formation: 1 mg/mL, uranyl acetate stain, qualitative
[2] = type: physicochemical; details: for ThT Cat. / ThT-Fluorescence (categorical): ThT-active if fluorescence at least twice the control; for Rel. ThT: n-fold ThT fluorescence vs control (PBS, 10% DMSO), 4 µL 1 mg/mL fibrils + 20 µL 50 µM ThT, 15 min RT, ex 440 / em 488 nm, triplicate
In short: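 Preformed peptide fibrils (1 mg/mL) mixed with 50 µM ThT in PBS, 15 min at RT, fluorescence ex 440/em 488 nm versus PBS blank, triplicates. Zeta potential: peptides at 1 mg/mL in PBS pH 7.4, aged 1 d at RT, diluted in 1 mM KCl, Smoluchowski from electrophoretic mobility.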

[3] = Turbidity, derived count rate of scattered light; type: physicochemical; details: for Count Rate: derived count rate of scattered light (turbidity); for Log10 Count Rate: turbidity, derived count rate of scattered light, data of Figure 2D
[4] = Fig S10 panel D, fibril category by TEM
[5] = TEM, 1 = fibrils present, 0 = non-fibrillar
[6] = TEM, 1 = fibrils present, 0 = non-fibrillar structures
[7] = category: fibrils present or non-fibrillar
[8] = ThT fluorescence category, 1 if Rel. ThT >2
[9] = FigS12 panel A, fibril category by TEM

Sequence	TEM 2cat [1, 4]	Fibril / Fibril Formation ([1]; TEM)	Fibril [1, 5]	Fibril [1, 6]	TEM 2cat [1, 7]	Tht category (> 2 to blank = +) ([2]; Fig S10 panel D)	ThT Cat, ([2]; ThT category, 1 if Rel. ThT >2)	ThT Cat. [2, 8]	ThT Cat. / ThT-Fluorescence (categorical) [2]	Count Rate [3]	Log10 Count Rate [3]	TEM 2cat ([1]; Fig S10 panel D)	Fibril ([1]; Fig S10 panel E)	TEM 2cat [1, 9]	Fibril ([1]; FigS12 panel B, TEM)	ThT Cat. ([2]; Fig S10 panel E)	Tht category (> 2 to blank = +) ([2]; FigS12 panel A)	ThT Cat, ([2]; FigS12 panel B)	ThT Cat. ([2]; ThT category, 1 if Rel. ThT >2)	Rel. ThT [2]
MKIKIQINM	1	1	1	1	1	0 (ThT-inactive (N-Fold <2))	0 (ThT-inactive (N-Fold <2))	0 (ThT-inactive (N-Fold <2))	0 (ThT-inactive (N-Fold <2))	981.3	2.9918	–	–	–	–	–	–	–	–	–
MKIKIQINMWQ	1	1	1	1	1	1 (ThT. Cat is 1, if Rel. ThT >2)	1 (ThT. Cat is 1, if Rel. ThT >2)	1 (ThT. Cat is 1, if Rel. ThT >2)	1 (ThT. Cat is 1, if Rel. ThT >2)	1475	3.169	–	–	–	–	–	–	–	–	–
QCKAKAQANM	–	0	0	0	–	0 (ThT-inactive (N-Fold <2))	0 (ThT-inactive (N-Fold <2))	–	0 (ThT-inactive (N-Fold <2))	204.1	2.31	0	0	0	0	0 (ThT-inactive (N-Fold <2))	0 (ThT-inactive (N-Fold <2))	0 (ThT-inactive (N-Fold <2))	0 (ThT-inactive (N-Fold <2))	1.4
QCKAKAQANMWQ	–	0	0	0	–	0 (ThT-inactive (N-Fold <2))	0 (ThT-inactive (N-Fold <2))	–	0 (ThT-inactive (N-Fold <2))	427.5	2.631	0	0	0	0	0 (ThT-inactive (N-Fold <2))	0 (ThT-inactive (N-Fold <2))	0 (ThT-inactive (N-Fold <2))	0 (ThT-inactive (N-Fold <2))	1.5
QCKFKQFF	–	1	1	1	–	1 (ThT. Cat is 1, if Rel. ThT >2)	1 (ThT. Cat is 1, if Rel. ThT >2)	–	1 (ThT. Cat is 1, if Rel. ThT >2)	225.4	2.353	1	–	1	1	–	1 (ThT. Cat is 1, if Rel. ThT >2)	1 (ThT. Cat is 1, if Rel. ThT >2)	1 (ThT. Cat is 1, if Rel. ThT >2)	–
QCKFKQFFNM	–	1	1	1	1	1 (ThT. Cat is 1, if Rel. ThT >2)	1 (ThT. Cat is 1, if Rel. ThT >2)	–	1 (ThT. Cat is 1, if Rel. ThT >2)	10384.7	4.016	1	1	–	–	1 (ThT. Cat is 1, if Rel. ThT >2)	–	–	1 (ThT. Cat is 1, if Rel. ThT >2)	–
QCKFKQFFNMWQ	–	1	1	1	1	1 (ThT. Cat is 1, if Rel. ThT >2)	1 (ThT. Cat is 1, if Rel. ThT >2)	–	1 (ThT. Cat is 1, if Rel. ThT >2)	18911.36667	4.277	1	1	–	–	1 (ThT. Cat is 1, if Rel. ThT >2)	–	–	1 (ThT. Cat is 1, if Rel. ThT >2)	–
QCKIKIQINM	–	1	1	1	1	1 (ThT. Cat is 1, if Rel. ThT >2)	1 (ThT. Cat is 1, if Rel. ThT >2)	–	1 (ThT. Cat is 1, if Rel. ThT >2)	9524	3.979	1	1	–	–	1 (ThT. Cat is 1, if Rel. ThT >2)	–	–	1 (ThT. Cat is 1, if Rel. ThT >2)	–
RGDCKFKFQF	1	1	1	1	1	1 (ThT. Cat is 1, if Rel. ThT >2)	1 (ThT. Cat is 1, if Rel. ThT >2)	1 (ThT. Cat is 1, if Rel. ThT >2)	1 (ThT. Cat is 1, if Rel. ThT >2)	1338	3.1264	–	1	–	–	1 (ThT. Cat is 1, if Rel. ThT >2)	–	–	–	–
RGDCKIKIQINM	1	1	1	1	1	0 (ThT-inactive (N-Fold <2))	0 (ThT-inactive (N-Fold <2))	0 (ThT-inactive (N-Fold <2))	0 (ThT-inactive (N-Fold <2))	1623	3.2102	–	–	–	–	–	–	–	–	–
